From US20230096528A1, “Pharmaceutical Composition for Treatment or Prevention of Multiple Inflammatory disorders” (priority 2019, published 2023)

Tested on: diet-induced (DIO) mice
Assay: Body weight study in diet-induced (DIO) mice (Example 9)
Format: in vivo, C57BL/6NTac mice
Settings: gavage BID (DA 92.4 mg/kg, CQL 50 mg/kg)
Procedure: This example provides results of a study of DA plus another compound (CQL) on body weight in diet-induced (DIO) mice. Adult C57BL/6NTac mice were fed with a high fat diet (60%). […] The study period was for 56 days+2-3 days testing period afterward. Body weight change measure 3× per week, food and water consumption on days 0, 12, 28, 42 and 56. Metabolic biomarkers were measured on days 28 and 56. Cytokine analysis on Days 28 and 56. Serum levels of GLP-1, GLP-2, and CCK at 1 h after dosing on Days 1 and 56, and at 2 h after dosing on Day 7 (dosing (>6 h fasting prior to dosing until after blood collection); and serum level of PPY on Day 56.

Which “Serum HbA1c level at Day 28” value does the source give for Oc1c(I)cc(Cl)c2cccnc12 [CQL] here?
The value was “significantly reduced”.

What about the “Serum HbA1c level at Day 56” value of the same compound?
The value was “considerably increased”.

What about the “Daily water intake at Day 28” value (vs vehicle) of the same compound?
The value was “significantly decreased”.
